Measured values taken from patent US12077503B2, “Substituted cyclic amides and their use as herbicides” (FMC CORPORATION, priority 2015, dated 2024).

Assays:
Format in all cases: in vivo
Kochia (Kochia scoparia) [1] = test: Test A preemergence
In short: (§1)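 Seeds sprayed preemergence with a directed soil spray, or plants at 2 to 10 cm height and one- to two-leaf stage sprayed postemergence, with test chemicals in a non-phytotoxic solvent mixture containing surfactant, in loam soil–sand blend. Injury rated visually against untreated controls after about 10 d in greenhouse, 0 (no effect) to 100 (complete control).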

[2] = test system: barnyardgrass (Echinochloa crus-galli); test: Test A preemergence
In short: as §1

[3] = test system: giant foxtail (Setaria faberii); test: Test A preemergence
In short: as §1

[4] = test system: pigweed (Amaranthus retroflexus); test: Test A preemergence
[5] = test system: ragweed (common ragweed, Ambrosia elatior); test: Test A preemergence
In short: as §1

[6] = test system: ryegrass, Italian (Italian ryegrass, Lolium multiflorum); test: Test A preemergence
In short: as §1

[7] = test system: Galium (catchweed bedstraw, Galium aparine); test: Test A postemergence; settings: postemergence, 0 to 100 scale (0 no effect, 100 complete control)
In short: as §1

Kochia (Kochia scoparia) [8] = test: Test A postemergence; settings: postemergence, 0 to 100 scale (0 no effect, 100 complete control)
In short: as §1

[9] = test system: barnyardgrass (Echinochloa crus-galli); test: Test A postemergence
In short: as §1

[10] = test system: blackgrass (Alopecurus myosuroides); test: Test A postemergence
In short: as §1

corn (Zea mays) = test: Test A postemergence
In short: as §1

[11] = test system: giant foxtail (Setaria faberii); test: Test A postemergence; settings: postemergence, 0 to 100 scale (0 no effect, 100 complete control)
In short: as §1

[12] = test system: pigweed (Amaranthus retroflexus); test: Test A postemergence; settings: postemergence, 0 to 100 scale (0 no effect, 100 complete control)
In short: as §1

[13] = test system: ragweed (common ragweed, Ambrosia elatior); test: Test A postemergence; settings: postemergence, 0 to 100 scale (0 no effect, 100 complete control)
In short: as §1

[14] = test system: ryegrass, Italian (Italian ryegrass, Lolium multiflorum); test: Test A postemergence; settings: postemergence, 0 to 100 scale (0 no effect, 100 complete control)
In short: as §1

[15] = test system: wheat (Triticum aestivum); test: Test A postemergence; settings: postemergence, 0 to 100 scale (0 no effect, 100 complete control)
In short: as §1

[16] = test system: barnyardgrass (Echinochloa crus-galli); test: Test B flooded paddy test; settings: Flood, 250 g ai/ha; 0 to 100 scale where 0 is no effect and 100 is complete control; 13 to 15 d
In short: (§2)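 Evaluation by eye, against controls, occurred 13–15 d post-treatment in a greenhouse, using a 0 (no effect) to 100 (complete control) scale. Application was into the paddy water, 3 cm deep over the soil, on 2-leaf plants.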

[17] = test system: ducksalad (Heteranthera limosa); test: Test B flooded paddy test; settings: Flood, 250 g ai/ha; 0 to 100 scale where 0 is no effect and 100 is complete control; 13 to 15 d
In short: as §2

rice (Oryra sativa) = test: Test B flooded paddy test; settings: Flood, 250 g ai/ha; 0 to 100 scale where 0 is no effect and 100 is complete control; 13 to 15 d
In short: as §2

[18] = test system: sedge, umbrella (small-flower umbrella sedge, Cyperus difformis); test: Test B flooded paddy test; settings: Flood, 250 g ai/ha; 0 to 100 scale where 0 is no effect and 100 is complete control; 13 to 15 d
In short: as §2

[19] = 125 g ai/ha, Preemergence, visual injury after approximately 10 d, 0 to 100 scale where 0 is no effect and 100 is complete control
[20] = 500 g ai/ha, preemergence, 0 to 100 scale, 0 = no effect, 100 = complete control
[21] = 125 g ai/ha, visual rating after approx. 10 d
[22] = 500 g ai/ha, visual injury, approx. 10 d
[23] = 125 g ai/ha, postemergence, visual rating after approx. 10 d, 0 to 100 scale (0 no effect, 100 complete control)
[24] = Postemergence, 500 g ai/ha, 0 to 100 scale where 0 is no effect and 100 is complete control

C=CCOc1cccc(C2CNC(=O)C2(CC=C)C(=O)Nc2cccc(F)c2F)c1 (stereo not drawn) [Compound 631]
0: Plant response rating, Kochia (Kochia (Kochia scoparia) [1]; [19]) | Plant response rating, Kochia (Kochia (Kochia scoparia) [1]; [20]) | Plant response rating, Barnyardgrass [2, 19] | Plant response rating, Barnyardgrass [2, 20] | Plant response rating, Foxtail, Giant [3, 19] | Plant response rating, Foxtail, Giant [3, 20] | Plant response rating, Pigweed [4, 19] | Plant response rating, Pigweed [4, 20] | Plant response rating, Ragweed [5, 19] | Plant response rating, Ragweed [5, 20] | Plant response rating, Ryegrass, Italian [6, 19] | Plant response rating, Ryegrass, Italian [6, 20] | Plant response rating, Galium [7, 21] | Plant response rating, Galium [7, 22] | Plant response rating, Kochia (Kochia (Kochia scoparia) [8]; [21]) | Plant response rating, Kochia (Kochia (Kochia scoparia) [8]; [22]) | Plant response rating, Barnyardgrass [9, 23] | Plant response rating, Barnyardgrass [9, 24] | Plant response rating, Blackgrass [10, 23] | Plant response rating, Blackgrass [10, 24] | Plant response rating, Corn (corn (Zea mays); [23]) | Plant response rating, Corn (corn (Zea mays); [24]) | Plant response rating, Foxtail, Giant [11, 21] | Plant response rating, Foxtail, Giant [11, 22] | Plant response rating, Pigweed [12, 21] | Plant response rating, Pigweed [12, 22] | Plant response rating, Ragweed [13, 21] | Plant response rating, Ragweed [13, 22] | Plant response rating, Ryegrass, Italian [14, 21] | Plant response rating, Ryegrass, Italian [14, 22] | Plant response rating, Wheat [15, 21] | Plant response rating, Wheat [15, 22] | Plant response rating, Barnyardgrass [16] | Plant response rating, Ducksalad [17] | Plant response rating, Rice (rice (Oryra sativa)) | Plant response rating, Sedge, Umbrella [18]
